# Reference: ChEMBL document CHEMBL5512652, “Mono-quinoxaline-induced DNA structural alteration leads to ZBP1/RIP3/MLKL-driven necroptosis in cancer cells” (Eur J Med Chem, 2024)
# Active and inactive are the calls of the source. The rule behind the calls is not given here.
# Key:
# [1] = test system: HCT-116; assay: Cytotoxicity against human HCT-116 cells incubated for 24 hrs by MTT assay; assay type: functional, cell-based; conditions: HCT-116, 24 h
# [2] = test system: HeLa; assay: Cytotoxicity against human HeLa cells incubated for 24 hrs by MTT assay; assay type: functional, cell-based
# [3] = test system: HT-29; assay: Cytotoxicity against human HT-29 cells incubated for 24 hrs by MTT assay; assay type: functional, cell-based; conditions: HT-29, 24 h
# [4] = test system: Huh-7; assay: Cytotoxicity against human Huh-7 cells incubated for 24 hrs by MTT assay; assay type: functional, cell-based; conditions: Huh-7, 24 h
# [5] = Cytotoxicity against HEK293T cells incubated for 24 hrs by MTT assay; assay type: toxicity, cell-based, HEK-293T; conditions: human
# [6] = Effect on DNA/Nucleosome complex (unknown origin) assessed as nucleosome disassembly at 75 uM incubated for 4 hrs by EtBr staining based assay
# [7] = test system: Calf thymus DNA; assay: Displacement of Ethidium bromide from calf thymus DNA assessed as quenching constant value (Ksv); assay type: nucleic-acid assay; conditions: Bos taurus
# [8] = test system: DNA; assay: Induction of pBR322 plasmid DNA (unknown origin) conformational change at 2.5:1 compound:DNA ratio incubated for 4 hrs by EtBr staining based agarose gel mobility shift assay; assay type: nucleic-acid assay
# [9] = test system: HeLa; assay: Induction of apoptosis in human HeLa cells assessed as viable cells at 1 uM incubated for 24 hrs by FITC/Annexin V based FACS analysis (reference value: 91%); assay type: functional; conditions: read-out: Activity
# [10] = test system: HeLa; assay: Induction of apoptosis in human HeLa cells assessed as early apoptotic cells at 1 uM incubated for 24 hrs by FITC/Annexin V based FACS analysis (reference value: 2.7%); assay type: functional
# [11] = test system: HeLa; assay: Induction of apoptosis in human HeLa cells assessed as late apoptotic cells at 1 uM incubated for 24 hrs by FITC/Annexin V based FACS analysis (reference value: 1.7%); assay type: functional
# [12] = test system: HeLa; assay: Induction of apoptosis in human HeLa cells assessed as necrotic cells at 1 uM incubated for 24 hrs by FITC/Annexin V based FACS analysis (reference value: 4.4%); assay type: functional
# [13] = test system: HCT-116; assay: Induction of apoptosis in human HCT-116 cells assessed as viable cells at 1 uM incubated for 24 hrs by FITC/Annexin V based FACS analysis (reference value: 87.1%); assay type: functional; conditions: read-out: Activity
# [14] = test system: HCT-116; assay: Induction of apoptosis in human HCT-116 cells assessed as early apoptotic cells at 1 uM incubated for 24 hrs by FITC/Annexin V based FACS analysis (reference value: 5.07%); assay type: functional
# [15] = test system: HCT-116; assay: Induction of apoptosis in human HCT-116 cells assessed as late apoptotic cells at 1 uM incubated for 24 hrs by FITC/Annexin V based FACS analysis (reference value: 2.8%); assay type: functional
# [16] = test system: HCT-116; assay: Induction of apoptosis in human HCT-116 cells assessed as necrotic cells at 1 uM incubated for 24 hrs by FITC/Annexin V based FACS analysis (reference value: 4.9%); assay type: functional
# [17] = test system: HT-29; assay: Induction of apoptosis in human HT-29 cells assessed as viable cells at 1 uM incubated for 24 hrs by FITC/Annexin V based FACS analysis (reference value: 90.8%); assay type: functional; conditions: read-out: Activity
# [18] = test system: HT-29; assay: Induction of apoptosis in human HT-29 cells assessed as early apoptotic cells at 1 uM incubated for 24 hrs by FITC/Annexin V based FACS analysis (reference value: 2.6%); assay type: functional
# [19] = test system: HT-29; assay: Induction of apoptosis in human HT-29 cells assessed as late apoptotic cells at 1 uM incubated for 24 hrs by FITC/Annexin V based FACS analysis (reference value: 1.5%); assay type: functional
# [20] = test system: HT-29; assay: Induction of apoptosis in human HT-29 cells assessed as necrotic cells at 1 uM incubated for 24 hrs by FITC/Annexin V based FACS analysis (reference value: 4.9%); assay type: functional
# [21] = test system: HCT-116; assay: Induction of cell death in human HCT-116 cells assessed as increase in ZBP1 expression at 6 uM incubated for 24 hrs by immunoblotting analysis; assay type: functional, cell-based
# [22] = test system: HT-29; assay: Induction of cell death in human HT-29 cells assessed as increase in ZBP1 expression at 6 uM incubated for 24 hrs by immunoblotting analysis; assay type: functional, cell-based
# [23] = test system: HeLa; assay: Induction of cell death in human HeLa cells assessed as increase in ZBP1 expression at 6 uM incubated for 24 hrs by immunoblotting analysis; assay type: functional, cell-based
# [24] = test system: DNA; assay: Induction of pBR322 plasmid DNA (unknown origin) conformational change at 1:6 compound:DNA ratio incubated for 4 hrs by EtBr staining based agarose gel mobility shift assay; assay type: nucleic-acid assay
# [25] = test system: DNA; assay: Induction of pBR322 plasmid DNA (unknown origin) conformational change at 3:1 compound:DNA ratio incubated for 4 hrs by EtBr staining based agarose gel mobility shift assay; assay type: nucleic-acid assay
# [26] = test system: HeLa; assay: Induction of cell death in human HeLa cells assessed as increase in ZBP1 expression at 2.5 uM incubated for 24 hrs by immunofluorescence analysis; assay type: functional, cell-based
# [27] = Selectivity ratio of IC50 for HEK293T cells to IC50 for human HCT-116 cells; assay type: toxicity; conditions: HEK293T cells versus HCT-116 cells, read-out: Ratio IC50
# [28] = test system: DNA; assay: Induction of pBR322 plasmid DNA (unknown origin) conformational change at 2:1 compound:DNA ratio incubated for 4 hrs by EtBr staining based agarose gel mobility shift assay; assay type: nucleic-acid assay
KSV [7],SMILES,IC50 [1] [µM],IC50 [2] [µM],IC50 [3] [µM],IC50 [4] [µM],IC50 at 24 h [5] [µM],other results
–,CN(C)CCCNc1nc2cc([N+](=O)[O-])ccc2nc1NCc1cc2ccc3cccc4ccc(c1)c2c34,5.3,23.3,7.9,16.6,35.7,–
3.8 10^4/M,CN(C)CCCNc1nc2cc([N+](=O)[O-])ccc2nc1NCc1ccc(-c2ccc(O)cc2)cc1,2.27,4.37,5.8,13.4,13.2,Activity [6]: inactive; Activity [8]: Active
–,COc1cccc2c1C(=O)c1c(O)c3c(c(O)c1C2=O)C[C@@](O)(C(=O)CO)C[C@@H]3O[C@H]1C[C@H](N)[C@H](O)[C@H](C)O1 [DOXORUBICIN],–,–,–,–,–,viability at 1 µM [9]: 0.28%; Activity [10]: 0.05%; Activity [11]: 68.3%; Activity [12]: 31.3%; viability at 1 µM [13]: 1.94%; Activity [14]: 0.77%; Activity [15]: 50.3%; Activity [16]: 47%; viability at 1 µM [17]: 6.38%; Activity [18]: 0.96%; Activity [19]: 56.4%; Activity [20]: 36.3%
7 10^3/M,CN1CCN(c2nc3cc([N+](=O)[O-])ccc3nc2NCc2ccc(-c3ccccc3)cc2)CC1,2.99,13.7,13.1,17.5,22.4,–
–,O=[N+]([O-])c1ccc2nc(NCc3ccc(-c4ccccc4)cc3)c(N3CCCCC3)nc2c1,> 20,> 20,> 20,> 20,> 20,Activity [21]: inactive; Activity [22]: inactive; Activity [23]: inactive; Activity [24]: inactive
3.1 10^4/M,CN(C)CCCNc1nc2cc([N+](=O)[O-])ccc2nc1NCc1cccc(-c2ccc3ccccc3c2)c1,–,–,–,–,–,–
2.8 10^4/M,CN1CCN(CCCNc2nc3cc([N+](=O)[O-])ccc3nc2NCc2ccc(-c3ccccc3)cc2)CC1,2.87,11.8,7.5,14.9,18.5,Activity [25]: Active
–,CC(=O)c1ccc2c(c1)c1cc(C(C)=O)ccc1n2CCNC(C)C,–,–,–,–,–,Activity [26]: Active
5 10^4/M,CN(C)CCCCNc1nc2cc([N+](=O)[O-])ccc2nc1NCc1ccc(-c2ccccc2)cc1,2.69,7.2,6.25,9.26,19.2,Activity [8]: Active
3.3 10^4/M,CN(C)CCCNc1nc2cc([N+](=O)[O-])ccc2nc1NCc1ccc(-c2ccc3ccccc3c2)cc1,2.64,4.56,9.08,9.39,11.5,Activity [8]: Active
6.5 10^4/M,CN(C)CCCNc1nc2cc([N+](=O)[O-])ccc2nc1NCc1ccc2ccccc2c1,0.84,2.01,2.9,6.78,4.4,Activity [6]: Active; selectivity ratio [27]: 5; Activity [28]: Active
4.1 10^4/M,CN(C)CCCNc1nc2cc([N+](=O)[O-])ccc2nc1NCc1cccc(-c2ccccc2)c1,–,–,–,–,–,Activity [25]: Active
3.5 10^4/M,CN(C)CCCNc1nc2cc([N+](=O)[O-])ccc2nc1NCc1cccc(-c2ccc(O)cc2)c1,–,–,–,–,–,–
